Here are results for 45 molecules from ChEMBL document CHEMBL1944619, “QSAR studies for prediction of cross-β sheet aggregate binding affinity and selectivity” (Bioorg Med Chem, 2012).

The term IC50 denotes the point on the concentration scale where inhibition reaches its midpoint. A lower IC50 goes with greater potency in that assay.

This assay in a line: Displacement of thioflavin-T from amyloid beta (1 to 40) aggregates by thioflavin-T fluorescent dye assay.
In turn, `Cc1ccc2sc(/C=C/c3ccc(N(C)C)cc3)[n+](C)c2c1` came in with an IC50 of 400 nM.
The figure for `CN(C)c1ccc(/C=C/c2sc3ccccc3[n+]2CCCc2ccccc2)cc1` is 200 nM; for `CC[n+]1c(/C=C/c2ccc(N(C)C)cc2)sc2ccccc21` it is 400 nM.
The figure for `CN(C)c1ccc(/C=C/c2sc3ccccc3[n+]2Cc2ccccc2-c2ccccc2)cc1` is 100 nM.
The figure for `CN(C)c1ccc(/C=C/c2sc3ccc(Cl)cc3[n+]2C)cc1` is 430 nM; for `CN(C)c1ccc(/C=C/c2sc3ccccc3[n+]2Cc2ccc3ccccc3c2)cc1` it is 120 nM.
Turning to `CN(C)c1ccc(/C=C/c2sc3ccccc3[n+]2C)cc1`, the IC50 was 1000 nM.
In turn, `CN(C)c1ccc(/C=C/c2sc3ccccc3[n+]2CCCCCOc2ccccc2)cc1` yielded a half-maximal inhibitory concentration (IC50) of 170 nM.
As to `CN(C)c1ccc(/C=C/c2sc3ccccc3[n+]2Cc2ccc(F)cc2)cc1`, the 50% inhibitory concentration (IC50) was 120 nM.
Molecule `CN(C)c1ccc(/C=C/c2sc3cc([N+](=O)[O-])ccc3[n+]2C)cc1` registered an IC50 of 1000 nM.
The result for `Cc1ccc2c(c1)sc(/C=C/c1ccc(N(C)C)cc1)[n+]2C` reads 180 nM.
The result for `CCCCCCC[n+]1c(/C=C/c2ccc(N(CC)CC)cc2)sc2ccccc21` reads 140 nM; that for `CN(C)c1ccc(/C=C/c2sc3ccccc3[n+]2Cc2ccccc2)cc1`, 110 nM; that for `CCCC[n+]1c(/C=C/c2ccc(N(C)C)cc2)sc2ccccc21`, 160 nM.
As to `CN(C)c1ccc(/C=C/c2sc3ccccc3[n+]2CCCOCc2ccccc2)cc1`, the concentration for half-maximal inhibition (IC50) turned out to be 140 nM.
For `CCCCCCC[n+]1c(/C=C/c2ccc(N(C)C)cc2)sc2ccccc21`, the concentration for half-maximal inhibition (IC50) came to 93 nM.
The figure for `COc1ccc2c(c1)sc(/C=C/c1ccc(N(C)C)c3ccccc13)[n+]2C` is 430 nM.
In the case of `CN(C)c1ccc(/C=C/c2sc3cc(Cc4ccccc4)c(Cc4ccccc4)cc3[n+]2C)cc1`, the 50% inhibitory concentration (IC50) worked out at 120 nM.
Take `CN(C)c1ccc(/C=C/c2sc3ccccc3[n+]2CCCCOc2ccccc2)cc1`: the IC50 came out at 170 nM.
The figure for `CN(C)c1ccc(/N=N/c2sc3ccccc3[n+]2C)cc1` is 1300 nM; for `CN(C)c1ccc(/C=C/c2sc3ccccc3[n+]2CCCCCc2ccccc2)cc1` it is 170 nM; for `COc1ccc2nc(/N=N/c3ccc(N(C)C)c4ccccc34)sc2c1` it is 2500 nM.
The figure for `CN(C)c1ccc(/C=C/c2nc3ccc(N(C)C)cc3s2)cc1` is more than 100000 nM.
The figure for `CN(C)c1ccc(/C=C/c2sc3c(Cc4ccccc4)c(Cc4ccccc4)ccc3[n+]2C)cc1` is 210 nM; for `CN(C)c1ccc(/C=C/c2sc3ccccc3[n+]2C/C=C/c2ccccc2)cc1` it is 100 nM; for `COc1ccc2c(c1)sc(/N=N/c1ccc(N(C)C)cc1)[n+]2C` it is 410 nM.
The molecule `CN(C)c1ccc(/C=C/c2nc3ccccc3s2)cc1` had an IC50 of more than 100000 nM.
The result for `CN(C)c1ccc(/N=N/c2nc3ccccc3s2)cc1` reads 22000 nM; that for `CN(C)c1ccc(/C=C/c2sc3ccccc3[n+]2CCCC2CCCCC2)cc1`, 120 nM.
Take `CN(C)c1ccc(/C=C/c2sc3ccc(F)cc3[n+]2C)cc1`: the IC50 amounted to 1000 nM.
Consider `CN(C)c1ccc(/C=C/c2sc3ccc(Cc4ccccc4)c(Cc4ccccc4)c3[n+]2C)cc1`, for which the half-maximal inhibitory concentration (IC50) came out at 210 nM.
`CCCCCCC[n+]1c(/C=C/c2ccc(N(CCCC)CCCC)cc2)sc2ccccc21` showed a half-inhibitory concentration (IC50) of 600 nM.
The result for `CCCCCCC[n+]1c(/C=C/c2ccc(N(C)C)cc2)sc2cc(OC)ccc21` reads 140 nM.
In the case of `CN(C)c1ccc(/C=C/c2sc3ccccc3[n+]2Cc2ccc(-c3ccccc3)cc2)cc1`, the IC50 was 240 nM.
The figure for `COc1ccc2nc(/N=N/c3ccc(N(C)C)cc3)sc2c1` is 3200 nM; for `CN(C)c1ccc(/C=C/c2sc3ccccc3[n+]2Cc2cccc(Oc3ccccc3)c2)cc1` it is 120 nM.
The result for `Cc1ccc2c(c1)sc(/C=C/c1ccc(N(C)C)cc1)[n+]2Cc1ccccc1` reads 130 nM; that for `COc1ccc2c(c1)sc(/C=C/c1ccc(N(C)C)cc1)[n+]2C`, 300 nM; that for `Nc1ccc(/N=N/c2nc3ccccc3s2)c2ccccc12`, 120 nM.
The molecule `CCCCCCC[n+]1c(/C=C/c2ccc(N(C)C)c3ccccc23)sc2ccccc21` displayed an IC50 of 160 nM.
In turn, `CCCCCCC[n+]1c(/C=C/c2ccc(-n3cccc3)cc2)sc2ccccc21` gave a half-inhibitory concentration (IC50) of 160 nM.
Consider `CN(C)c1ccc(/C=C/c2sc3ccccc3[n+]2Cc2cccc(OC(=O)c3ccccc3)c2)cc1`, for which the IC50 amounted to 230 nM.
The figure for `CN(C)c1ccc(/C=C/c2sc3ccc(F)cc3[n+]2Cc2ccccc2)cc1` is 170 nM; for `CN(C)c1ccc(/C=C/c2sc3ccccc3[n+]2CCCC(c2ccccc2)c2ccccc2)cc1` it is 460 nM; for `CN(C)c1ccc(/C=C/c2nc3cc(Cl)ccc3s2)cc1` it is more than 100000 nM.
